Tests used:
Assay in all cases: relative viability (nuclei count vs DMSO), 5 days (fraction); higher = more cells survive
KIN001-266 + OSI-027 = compound: CCN1CCC(CC1)N2C=C(N=N2)CNC3=CC4=C(C(=CN=C4C(=C3)Cl)C#N)NC5=CC(=C(C=C5)F)Cl [KIN001-266] + COc1cccc2cc(-c3nc([C@H]4CC[C@H](C(=O)O)CC4)n4ncnc(N)c34)[nH]c12 [OSI-027] (partner 0.5 µM)
Method in brief: (§1)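 Lung cancer cell lines in 1536-well plates got either a single drug or a fixed anchor-drug dose together with five library-drug doses (not always all listed) in √10 steps, by pin tool, on the day after seeding. Nuclei were counted after 5 days, and relative viability is the treated-to-vehicle ratio of nuclei counts. Values are medians of duplicate plates.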

KIN001-266 + Phenformin = compound: CCN1CCC(CC1)N2C=C(N=N2)CNC3=CC4=C(C(=CN=C4C(=C3)Cl)C#N)NC5=CC(=C(C=C5)F)Cl [KIN001-266] + N=C(N)NC(=N)NCCc1ccccc1 [Phenformin] (partner 250 µM)
Method in brief: as §1

KIN001-266 + Trametinib = compound: CCN1CCC(CC1)N2C=C(N=N2)CNC3=CC4=C(C(=CN=C4C(=C3)Cl)C#N)NC5=CC(=C(C=C5)F)Cl [KIN001-266] + CC(=O)Nc1cccc(-n2c(=O)n(C3CC3)c(=O)c3c(Nc4ccc(I)cc4F)n(C)c(=O)c(C)c32)c1 [Trametinib] (partner 0.02 µM)
Method in brief: as §1

KIN001-266 + Crizotinib = compound: CCN1CCC(CC1)N2C=C(N=N2)CNC3=CC4=C(C(=CN=C4C(=C3)Cl)C#N)NC5=CC(=C(C=C5)F)Cl [KIN001-266] + C[C@@H](Oc1cc(-c2cnn(C3CCNCC3)c2)cnc1N)c1c(Cl)ccc(F)c1Cl [Crizotinib] (partner 1 µM)
Method in brief: as §1

| Cell Line | relative viability (KIN001-266 + OSI-027; first compound 0.08 µM) | relative viability (KIN001-266 + OSI-027; first compound 0.253 µM) | relative viability (KIN001-266 + OSI-027; first compound 0.8 µM) | relative viability (KIN001-266 + OSI-027; first compound 2.53 µM) | relative viability (KIN001-266 + OSI-027; first compound 8 µM) | relative viability (KIN001-266 + Phenformin; first compound 0.08 µM) | relative viability (KIN001-266 + Phenformin; first compound 0.253 µM) | relative viability (KIN001-266 + Phenformin; first compound 0.8 µM) | relative viability (KIN001-266 + Phenformin; first compound 2.53 µM) | relative viability (KIN001-266 + Phenformin; first compound 8 µM) | relative viability (KIN001-266 + Trametinib; first compound 0.08 µM) | relative viability (KIN001-266 + Trametinib; first compound 0.253 µM) | relative viability (KIN001-266 + Trametinib; first compound 0.8 µM) | relative viability (KIN001-266 + Trametinib; first compound 2.53 µM) | relative viability (KIN001-266 + Trametinib; first compound 8 µM) | relative viability (KIN001-266 + Crizotinib; first compound 0.08 µM) | relative viability (KIN001-266 + Crizotinib; first compound 0.253 µM) | relative viability (KIN001-266 + Crizotinib; first compound 0.8 µM) | relative viability (KIN001-266 + Crizotinib; first compound 2.53 µM) | relative viability (KIN001-266 + Crizotinib; first compound 8 µM) |
| --- | --- | --- | --- | --- | --- | --- | --- | --- | --- | --- | --- | --- | --- | --- | --- | --- | --- | --- | --- | --- |
| NCI-H2347 | 0.606 | 0.456 | 0.296 | 0.374 | 0.255 | 0.405 | 0.428 | 0.435 | 0.519 | 0.24 | 0.304 | 0.323 | 0.282 | 0.278 | 0.22 | 0.675 | 0.802 | 0.673 | 0.682 | 0.625 |
| NCI-H2405 | 0.652 | 0.671 | 0.609 | 0.561 | 0.515 | 0.401 | 0.412 | 0.378 | 0.379 | 0.155 | 0.64 | 0.658 | 0.661 | 0.615 | 0.61 | 0.854 | 0.89 | 0.811 | 0.852 | 0.565 |
| NCI-H3122 | 0.965 | 0.905 | 0.917 | 0.804 | 0.8 | 0.349 | 0.367 | 0.325 | 0.274 | 0.307 | 0.234 | 0.218 | 0.223 | 0.232 | 0.292 | 0.329 | 0.239 | 0.267 | 0.256 | 0.221 |
| PC-3 [JPC-3] | 0.764 | 0.776 | 0.688 | 0.755 | 0.751 | 0.466 | 0.496 | 0.48 | 0.475 | 0.477 | 0.785 | 0.739 | 0.554 | 0.741 | 0.607 | 0.986 | 0.911 | 0.872 | 0.952 | 0.896 |
| PC-14 | 0.836 | 0.981 | – | 0.67 | 0.152 | 0.567 | 0.762 | 0.356 | 0.543 | 0.324 | 0.715 | 0.729 | 0.808 | 0.518 | 0.141 | 0.92 | 0.972 | 0.817 | 0.852 | 0.571 |
| RERF-LC-KJ | 0.645 | 0.614 | 0.519 | 0.498 | 0.351 | 0.436 | 0.354 | 0.415 | 0.355 | 0.345 | 0.945 | 0.849 | 0.823 | 0.778 | 0.556 | 0.722 | 0.899 | 0.803 | 0.777 | 0.813 |
| SK-LU-1 | 0.358 | 0.307 | 0.403 | 0.346 | 0.26 | 0.561 | 0.47 | 0.526 | 0.439 | 0.394 | 0.518 | 0.451 | 0.437 | 0.369 | 0.429 | 1.13 | 0.997 | 0.963 | 0.763 | 0.557 |
| SK-MES-1 | 0.694 | 0.676 | 0.575 | 0.573 | 0.474 | 0.648 | 0.695 | 0.693 | 0.519 | 0.459 | 0.564 | 0.562 | 0.551 | 0.522 | 0.47 | 1.02 | 1.09 | 0.948 | 0.923 | 0.888 |
| SW 1573 | 0.778 | 0.627 | 0.616 | 0.515 | 0.513 | 0.347 | 0.425 | 0.334 | 0.262 | 0.165 | 0.575 | 0.493 | 0.603 | 0.557 | 0.464 | 0.695 | 0.846 | 0.81 | 0.663 | 0.68 |
| UMC-11 | 0.426 | 0.485 | 0.511 | 0.455 | 0.367 | 0.336 | 0.381 | 0.333 | 0.316 | 0.251 | 0.741 | 0.711 | 0.718 | 0.506 | 0.774 | 0.577 | 0.538 | 0.504 | 0.637 | 0.335 |

Reference: the supplement of paper PMC10307832
